Species: Rattus norvegicus
Test: Open TG-GATES - Regimen: Single
Assay type: toxicity, organism-based, Sprague-Dawley
Set-up: regimen Single, gender Male, age 6 weeks
Conditions: in vivo, po, route gavage; for gamma-GTP / ALP / ALT / AST / BUN / CRE / Ca / Cl / DBIL / GLC / IP / K / LDH / Na / PL / RALB / TBIL / TG / TP: tissue Plasma; for APTT / Bas / Eos / Fbg / Hb / Ht / Lym / MCH / MCV / Mono / Neu / PT / Plat / RBC / Ret / WBC: tissue Blood; for KIDNEY_L / KIDNEY_R / KIDNEY_TOTAL: tissue Kidney; for LIVER: tissue Liver

In the case of `NC(=O)N1c2ccccc2C=Cc2ccccc21` [CARBAMAZEPINE], the gamma-GTP (0 mg/kg, 24 h, dose level Control) is reported as 0.8 IU/L, the TERMINAL_BW (30 mg/kg, 3 h, dose level Low) is reported as 214.2 g and the APTT (30 mg/kg, 3 h, dose level Low) is reported as 19.1 s. It also gave a Bas (30 mg/kg, 3 h, dose level Low) of 0%, an Eos (30 mg/kg, 3 h, dose level Low) of 1% and a Fbg (30 mg/kg, 3 h, dose level Low) of 212.2 mg/dL. It also gave a Hb (30 mg/kg, 3 h, dose level Low) of 13.3 g/dL, a Ht (30 mg/kg, 3 h, dose level Low) of 39.3% and a Lym (30 mg/kg, 3 h, dose level Low) of 78.2%. The MCH (30 mg/kg, 3 h, dose level Low) was 21.1 pg, the MCV (30 mg/kg, 3 h, dose level Low) was 62.4 fL and the Mono (30 mg/kg, 3 h, dose level Low) was 2.4%. The Neu (30 mg/kg, 3 h, dose level Low) was 17.8%, the PT (30 mg/kg, 3 h, dose level Low) was 12.2 s and the Plat (30 mg/kg, 3 h, dose level Low) was 121.8 x10_4/uL. The RBC (30 mg/kg, 3 h, dose level Low) was 631.2 x10_4/ul, the Ret (30 mg/kg, 3 h, dose level Low) was 6.3% and the WBC (30 mg/kg, 3 h, dose level Low) was 97.3 x10_2/uL. The KIDNEY_L (30 mg/kg, 3 h, dose level Low) was 0.9 g, the KIDNEY_R (30 mg/kg, 3 h, dose level Low) was 0.9 g and the KIDNEY_TOTAL (30 mg/kg, 3 h, dose level Low) was 1.9 g. The LIVER (30 mg/kg, 3 h, dose level Low) was 9.8 g, the ALP (30 mg/kg, 3 h, dose level Low) was 896 IU/L and the ALT (30 mg/kg, 3 h, dose level Low) was 34.8 IU/L. The AST (30 mg/kg, 3 h, dose level Low) was 66.6 IU/L, the BUN (30 mg/kg, 3 h, dose level Low) was 12.6 mg/dL and the CRE (30 mg/kg, 3 h, dose level Low) was 0.4 mg/dL. The Ca (30 mg/kg, 3 h, dose level Low) was 10.6 mg/dL, the Cl (30 mg/kg, 3 h, dose level Low) was 103.6 meq/L and the DBIL (30 mg/kg, 3 h, dose level Low) was 0.072 mg/dL. It also gave a GLC (30 mg/kg, 3 h, dose level Low) of 187.8 mg/dL, an IP (30 mg/kg, 3 h, dose level Low) of 10.1 mg/dL and a K (30 mg/kg, 3 h, dose level Low) of 3.9 meq/L. For the same compound, the LDH (30 mg/kg, 3 h, dose level Low) was 177 IU/L, the Na (30 mg/kg, 3 h, dose level Low) was 142.4 meq/L and the PL (30 mg/kg, 3 h, dose level Low) was 143.8 mg/dL. For the same compound, the RALB (30 mg/kg, 3 h, dose level Low) was 3.3 g/dL, the TBIL (30 mg/kg, 3 h, dose level Low) was 0.1 mg/dL and the TG (30 mg/kg, 3 h, dose level Low) was 51.8 mg/dL. For the same compound, the TP (30 mg/kg, 3 h, dose level Low) was 5.5 g/dL, the gamma-GTP (30 mg/kg, 3 h, dose level Low) was 0.6 IU/L and the TERMINAL_BW (30 mg/kg, 6 h, dose level Low) was 211.1 g. The APTT (30 mg/kg, 6 h, dose level Low) was 21.9 s, the Bas (30 mg/kg, 6 h, dose level Low) was 0% and the Eos (30 mg/kg, 6 h, dose level Low) was 1%. For the same compound, the Fbg (30 mg/kg, 6 h, dose level Low) was 203.8 mg/dL, the Hb (30 mg/kg, 6 h, dose level Low) was 13.3 g/dL and the Ht (30 mg/kg, 6 h, dose level Low) was 38.6%. For the same compound, the Lym (30 mg/kg, 6 h, dose level Low) was 80.6%, the MCH (30 mg/kg, 6 h, dose level Low) was 20.9 pg and the MCV (30 mg/kg, 6 h, dose level Low) was 60.9 fL. The Mono (30 mg/kg, 6 h, dose level Low) was 2.6%, the Neu (30 mg/kg, 6 h, dose level Low) was 14.8% and the PT (30 mg/kg, 6 h, dose level Low) was 12.9 s. It also gave a Plat (30 mg/kg, 6 h, dose level Low) of 126.6 x10_4/uL, an RBC (30 mg/kg, 6 h, dose level Low) of 634.2 x10_4/ul and a Ret (30 mg/kg, 6 h, dose level Low) of 6.1%. For the same compound, the WBC (30 mg/kg, 6 h, dose level Low) was 83.2 x10_2/uL, the KIDNEY_L (30 mg/kg, 6 h, dose level Low) was 1 g and the KIDNEY_R (30 mg/kg, 6 h, dose level Low) was 1 g. The KIDNEY_TOTAL (30 mg/kg, 6 h, dose level Low) was 1.9 g, the LIVER (30 mg/kg, 6 h, dose level Low) was 9.2 g and the ALP (30 mg/kg, 6 h, dose level Low) was 896 IU/L. For the same compound, the ALT (30 mg/kg, 6 h, dose level Low) was 34.4 IU/L, the AST (30 mg/kg, 6 h, dose level Low) was 66 IU/L and the BUN (30 mg/kg, 6 h, dose level Low) was 9.6 mg/dL. The CRE (30 mg/kg, 6 h, dose level Low) was 0.4 mg/dL, the Ca (30 mg/kg, 6 h, dose level Low) was 10.4 mg/dL and the Cl (30 mg/kg, 6 h, dose level Low) was 103.2 meq/L. It also gave a DBIL (30 mg/kg, 6 h, dose level Low) of 0.078 mg/dL, a GLC (30 mg/kg, 6 h, dose level Low) of 197.6 mg/dL and an IP (30 mg/kg, 6 h, dose level Low) of 9.6 mg/dL. The K (30 mg/kg, 6 h, dose level Low) was 4 meq/L, the LDH (30 mg/kg, 6 h, dose level Low) was 194 IU/L and the Na (30 mg/kg, 6 h, dose level Low) was 140.6 meq/L. The PL (30 mg/kg, 6 h, dose level Low) was 130.6 mg/dL, the RALB (30 mg/kg, 6 h, dose level Low) was 3.3 g/dL and the TBIL (30 mg/kg, 6 h, dose level Low) was 0.1 mg/dL. The TG (30 mg/kg, 6 h, dose level Low) was 61.6 mg/dL, the TP (30 mg/kg, 6 h, dose level Low) was 5.5 g/dL and the gamma-GTP (30 mg/kg, 6 h, dose level Low) was 0.8 IU/L. For the same compound, the TERMINAL_BW (30 mg/kg, 9 h, dose level Low) was 210.1 g, the APTT (30 mg/kg, 9 h, dose level Low) was 18.7 s and the Bas (30 mg/kg, 9 h, dose level Low) was 0%. It also gave an Eos (30 mg/kg, 9 h, dose level Low) of 0.8%, a Fbg (30 mg/kg, 9 h, dose level Low) of 216.4 mg/dL and a Hb (30 mg/kg, 9 h, dose level Low) of 13.1 g/dL. For the same compound, the Ht (30 mg/kg, 9 h, dose level Low) was 38.3%, the Lym (30 mg/kg, 9 h, dose level Low) was 75.2% and the MCH (30 mg/kg, 9 h, dose level Low) was 21.3 pg. For the same compound, the MCV (30 mg/kg, 9 h, dose level Low) was 62.2 fL, the Mono (30 mg/kg, 9 h, dose level Low) was 1.6% and the Neu (30 mg/kg, 9 h, dose level Low) was 21.4%. It also gave a PT (30 mg/kg, 9 h, dose level Low) of 13 s, a Plat (30 mg/kg, 9 h, dose level Low) of 113.3 x10_4/uL and an RBC (30 mg/kg, 9 h, dose level Low) of 616.2 x10_4/ul. For the same compound, the Ret (30 mg/kg, 9 h, dose level Low) was 6.8%, the WBC (30 mg/kg, 9 h, dose level Low) was 83.2 x10_2/uL and the KIDNEY_L (30 mg/kg, 9 h, dose level Low) was 1 g. The KIDNEY_R (30 mg/kg, 9 h, dose level Low) was 1 g, the KIDNEY_TOTAL (30 mg/kg, 9 h, dose level Low) was 2 g and the LIVER (30 mg/kg, 9 h, dose level Low) was 8.6 g. It also gave an ALP (30 mg/kg, 9 h, dose level Low) of 814.2 IU/L, an ALT (30 mg/kg, 9 h, dose level Low) of 31.4 IU/L and an AST (30 mg/kg, 9 h, dose level Low) of 62.6 IU/L. The BUN (30 mg/kg, 9 h, dose level Low) was 11.8 mg/dL, the CRE (30 mg/kg, 9 h, dose level Low) was 0.4 mg/dL and the Ca (30 mg/kg, 9 h, dose level Low) was 10.3 mg/dL. For the same compound, the Cl (30 mg/kg, 9 h, dose level Low) was 102 meq/L, the DBIL (30 mg/kg, 9 h, dose level Low) was 0.076 mg/dL and the GLC (30 mg/kg, 9 h, dose level Low) was 190.4 mg/dL. The IP (30 mg/kg, 9 h, dose level Low) was 9.4 mg/dL, the K (30 mg/kg, 9 h, dose level Low) was 4.1 meq/L and the LDH (30 mg/kg, 9 h, dose level Low) was 175 IU/L. It also gave a Na (30 mg/kg, 9 h, dose level Low) of 140.4 meq/L, a PL (30 mg/kg, 9 h, dose level Low) of 137.2 mg/dL and an RALB (30 mg/kg, 9 h, dose level Low) of 3.3 g/dL. It also gave a TBIL (30 mg/kg, 9 h, dose level Low) of 0.1 mg/dL, a TG (30 mg/kg, 9 h, dose level Low) of 59.6 mg/dL and a TP (30 mg/kg, 9 h, dose level Low) of 5.6 g/dL. It also gave a gamma-GTP (30 mg/kg, 9 h, dose level Low) of 0.8 IU/L, a TERMINAL_BW (30 mg/kg, 24 h, dose level Low) of 228 g and an APTT (30 mg/kg, 24 h, dose level Low) of 19.6 s. For the same compound, the Bas (30 mg/kg, 24 h, dose level Low) was 0%, the Eos (30 mg/kg, 24 h, dose level Low) was 1% and the Fbg (30 mg/kg, 24 h, dose level Low) was 205.8 mg/dL. It also gave a Hb (30 mg/kg, 24 h, dose level Low) of 13.4 g/dL, a Ht (30 mg/kg, 24 h, dose level Low) of 39.6% and a Lym (30 mg/kg, 24 h, dose level Low) of 78.2%. The MCH (30 mg/kg, 24 h, dose level Low) was 21.4 pg, the MCV (30 mg/kg, 24 h, dose level Low) was 63.3 fL and the Mono (30 mg/kg, 24 h, dose level Low) was 2.4%. For the same compound, the Neu (30 mg/kg, 24 h, dose level Low) was 18%, the PT (30 mg/kg, 24 h, dose level Low) was 12.1 s and the Plat (30 mg/kg, 24 h, dose level Low) was 118 x10_4/uL. For the same compound, the RBC (30 mg/kg, 24 h, dose level Low) was 626.4 x10_4/ul, the Ret (30 mg/kg, 24 h, dose level Low) was 5.8% and the WBC (30 mg/kg, 24 h, dose level Low) was 103.7 x10_2/uL. The KIDNEY_L (30 mg/kg, 24 h, dose level Low) was 1.1 g, the KIDNEY_R (30 mg/kg, 24 h, dose level Low) was 1.1 g and the KIDNEY_TOTAL (30 mg/kg, 24 h, dose level Low) was 2.1 g. The LIVER (30 mg/kg, 24 h, dose level Low) was 11.2 g, the ALP (30 mg/kg, 24 h, dose level Low) was 892.6 IU/L and the ALT (30 mg/kg, 24 h, dose level Low) was 34 IU/L. It also gave an AST (30 mg/kg, 24 h, dose level Low) of 64.6 IU/L, a BUN (30 mg/kg, 24 h, dose level Low) of 16.2 mg/dL and a CRE (30 mg/kg, 24 h, dose level Low) of 0.4 mg/dL. It also gave a Ca (30 mg/kg, 24 h, dose level Low) of 10.6 mg/dL, a Cl (30 mg/kg, 24 h, dose level Low) of 102.4 meq/L and a DBIL (30 mg/kg, 24 h, dose level Low) of 0.1 mg/dL. For the same compound, the GLC (30 mg/kg, 24 h, dose level Low) was 214 mg/dL, the IP (30 mg/kg, 24 h, dose level Low) was 7.7 mg/dL and the K (30 mg/kg, 24 h, dose level Low) was 4.2 meq/L. It also gave an LDH (30 mg/kg, 24 h, dose level Low) of 198.8 IU/L, a Na (30 mg/kg, 24 h, dose level Low) of 140.2 meq/L and a PL (30 mg/kg, 24 h, dose level Low) of 151.2 mg/dL. For the same compound, the RALB (30 mg/kg, 24 h, dose level Low) was 3.3 g/dL, the TBIL (30 mg/kg, 24 h, dose level Low) was 0.1 mg/dL and the TG (30 mg/kg, 24 h, dose level Low) was 99.8 mg/dL. It also gave a TP (30 mg/kg, 24 h, dose level Low) of 5.5 g/dL.
